Results as given in patent US5639786A (priority 1994, dated 1997).
≈ marks a conversion by molar mass, not a printed value.

Tests used:
[1] = system: Vibrio cholerae neuraminidase; settings: Meindl and Tuppy 1969; cited from earlier work
[2] = system: influenza A/Singapore/1/57 (H2N2); test: microbe, parasite or virus in culture; format: cell-based; settings: H2N2, MDCK, 72 h, read-out: I50 Plaque Assay (μg/ml) Flu A
[3] = system: influenza B/Victoria/102/85; test: Inhibition of influenza virus replication in vitro, plaque reduction in MDCK cells (Flu B); format: cell-based; settings: 72 h, influenza B/Victoria/102/85, MDCK cells, 3 days, read-out: I50 Plaque Assay (μg/ml) Flu B
[4] = molecular target: N2 influenza neuraminidase (Influenza A virus (A/Aichi/2/1968(H3N2)), UniProt Q75VQ4); settings: read-out: NA1 (μg/ml), virion X31, MUN substrate, pH 6.5, 15 minutes at 37° C.
[5] = system: influenza and parainfluenza viruses; settings: Palese et al., Virology 1974; cited from earlier work
[6] = prior art; cited from earlier work

Sequence of N2 influenza neuraminidase (Influenza A virus (A/Aichi/2/1968(H3N2)), UniProt Q75VQ4) (Q75VQ4 whole entry, looked up): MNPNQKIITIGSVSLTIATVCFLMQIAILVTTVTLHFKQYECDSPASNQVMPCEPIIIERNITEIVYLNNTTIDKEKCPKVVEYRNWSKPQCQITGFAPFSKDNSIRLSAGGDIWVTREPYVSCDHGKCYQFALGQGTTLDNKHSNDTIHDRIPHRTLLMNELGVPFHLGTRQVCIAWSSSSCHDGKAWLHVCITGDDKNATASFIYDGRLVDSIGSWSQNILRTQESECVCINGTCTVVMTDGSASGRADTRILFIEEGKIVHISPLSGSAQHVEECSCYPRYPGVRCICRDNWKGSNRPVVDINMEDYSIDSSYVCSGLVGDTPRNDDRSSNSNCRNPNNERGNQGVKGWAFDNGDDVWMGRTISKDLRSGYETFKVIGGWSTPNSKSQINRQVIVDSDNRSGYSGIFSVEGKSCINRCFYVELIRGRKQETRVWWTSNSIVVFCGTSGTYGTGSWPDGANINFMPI

Compound: CC(=O)N[C@H]1[C@H]([C@H](O)[C@H](O)CO)OC(C(=O)O)C[C@@H]1O (some centres unmarked) [2-deoxy-N-acetylneuraminic acid]
- inhibition of Vibrio cholerae neuraminidase [1]: did not inhibit

Compound: CC(=O)N[C@H]1[C@H]([C@H](O)[C@H](O)CO)OC(C(=O)O)=C[C@@H]1NC(=N)NN [Example 1, 5-(Acetylamino)-4-[[amino(aminoimino)methyl]amino]-2,6-anhydro-3,4,5-trideoxy-D-glycero-D-galacto-non-2-enonic acid]
- IC50 [2]: 2.9 µg/mL (≈ 8.35 µM)
- IC50 [3]: 3 µg/mL (≈ 8.64 µM)
- IC50 [4]: 3740 nM

Compound: CC(=O)N[C@H]1[C@H]([C@H](O)[C@H](O)CO)OC(C(=O)O)=C[C@@H]1NC(=N)NO [Example 2, 5-(Acetylamino)-4-[[amino(hydroxyimino)methyl]amino]-2,6-anhydro-3,4,5-trideoxy-D-glycero-D-galacto-non-2-enonic acid]
- IC50 [2]: 0.1 µg/mL (≈ 0.287 µM)
- IC50 [3]: < 0.1 µg/mL
- IC50 [4]: 1720 nM

Compound: CC(=O)N[C@H]1[C@H]([C@H](O)[C@H](O)CO)OC(C(=O)O)=C[C@@H]1NC(N)=N[N+](=O)[O-] [Example 4, 5-(Acetylamino)-4-[[amino(nitroimino)methyl]amino]-2,6-anhydro-3,4,5-trideoxy-D-glycero-D-galacto-2-enonic acid]
- IC50 [3]: 24 µg/mL (≈ 63.6 µM)

Compound: CCOC(=O)N=C(N)N[C@H]1C=C(C(=O)O)O[C@@H]([C@H](O)[C@H](O)CO)[C@@H]1NC(C)=O [Example 5]
- IC50 [3]: 0.6 µg/mL (≈ 1.48 µM)

Compound: O=C(O)C1=CC(O)C(NC(=O)C(F)(F)F)C(C(O)C(O)CO)O1 (centres unmarked) [FANA, 2-deoxy-2,3-dehydro-N-trifluoroacetyl-neuraminic acid]
- inhibition of multi-cycle replication of influenza and parainfluenza viruses in vitro [5]: inhibits multi-cycle replication
- antiviral activity in vivo [6]: inactive in vivo
